# Reference: US9006450B2 (Boehringer Ingelheim International GmbH, priority 2010, dated 2015)
# Biological target: T1, human ACC2 (Homo sapiens, UniProt O00763)
# T1 construct: made in house; host or cells: insect cells (baculoviral expression system)
# Test: ACC2 assay, spectrophotometric 384 well assay (NADH-linked, coupled lactate dehydrogenase/pyruvate kinase)
# Type: biochemical
# Conditions: ACC2 assay, hACC2 construct lacking 128 N-terminal amino acids, 25° C., 340 nm; read-out: IC50
# Outline: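 ADP output tracked via pyruvate kinase/lactate dehydrogenase NADH oxidation, slope at 340 nm over 15 min, 25° C, with 500 μM ATP and 200 μM each acetyl-CoA and NADH. Enzyme: insect-cell-expressed human ACC2, N-terminal 128 residues deleted; pH 7.5 Tris with citrate, KHCO3. IC50 from four-parameter regression versus vehicle and no-acetyl-CoA controls.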
# T1 sequence (O00763 129-2458 limits assumed): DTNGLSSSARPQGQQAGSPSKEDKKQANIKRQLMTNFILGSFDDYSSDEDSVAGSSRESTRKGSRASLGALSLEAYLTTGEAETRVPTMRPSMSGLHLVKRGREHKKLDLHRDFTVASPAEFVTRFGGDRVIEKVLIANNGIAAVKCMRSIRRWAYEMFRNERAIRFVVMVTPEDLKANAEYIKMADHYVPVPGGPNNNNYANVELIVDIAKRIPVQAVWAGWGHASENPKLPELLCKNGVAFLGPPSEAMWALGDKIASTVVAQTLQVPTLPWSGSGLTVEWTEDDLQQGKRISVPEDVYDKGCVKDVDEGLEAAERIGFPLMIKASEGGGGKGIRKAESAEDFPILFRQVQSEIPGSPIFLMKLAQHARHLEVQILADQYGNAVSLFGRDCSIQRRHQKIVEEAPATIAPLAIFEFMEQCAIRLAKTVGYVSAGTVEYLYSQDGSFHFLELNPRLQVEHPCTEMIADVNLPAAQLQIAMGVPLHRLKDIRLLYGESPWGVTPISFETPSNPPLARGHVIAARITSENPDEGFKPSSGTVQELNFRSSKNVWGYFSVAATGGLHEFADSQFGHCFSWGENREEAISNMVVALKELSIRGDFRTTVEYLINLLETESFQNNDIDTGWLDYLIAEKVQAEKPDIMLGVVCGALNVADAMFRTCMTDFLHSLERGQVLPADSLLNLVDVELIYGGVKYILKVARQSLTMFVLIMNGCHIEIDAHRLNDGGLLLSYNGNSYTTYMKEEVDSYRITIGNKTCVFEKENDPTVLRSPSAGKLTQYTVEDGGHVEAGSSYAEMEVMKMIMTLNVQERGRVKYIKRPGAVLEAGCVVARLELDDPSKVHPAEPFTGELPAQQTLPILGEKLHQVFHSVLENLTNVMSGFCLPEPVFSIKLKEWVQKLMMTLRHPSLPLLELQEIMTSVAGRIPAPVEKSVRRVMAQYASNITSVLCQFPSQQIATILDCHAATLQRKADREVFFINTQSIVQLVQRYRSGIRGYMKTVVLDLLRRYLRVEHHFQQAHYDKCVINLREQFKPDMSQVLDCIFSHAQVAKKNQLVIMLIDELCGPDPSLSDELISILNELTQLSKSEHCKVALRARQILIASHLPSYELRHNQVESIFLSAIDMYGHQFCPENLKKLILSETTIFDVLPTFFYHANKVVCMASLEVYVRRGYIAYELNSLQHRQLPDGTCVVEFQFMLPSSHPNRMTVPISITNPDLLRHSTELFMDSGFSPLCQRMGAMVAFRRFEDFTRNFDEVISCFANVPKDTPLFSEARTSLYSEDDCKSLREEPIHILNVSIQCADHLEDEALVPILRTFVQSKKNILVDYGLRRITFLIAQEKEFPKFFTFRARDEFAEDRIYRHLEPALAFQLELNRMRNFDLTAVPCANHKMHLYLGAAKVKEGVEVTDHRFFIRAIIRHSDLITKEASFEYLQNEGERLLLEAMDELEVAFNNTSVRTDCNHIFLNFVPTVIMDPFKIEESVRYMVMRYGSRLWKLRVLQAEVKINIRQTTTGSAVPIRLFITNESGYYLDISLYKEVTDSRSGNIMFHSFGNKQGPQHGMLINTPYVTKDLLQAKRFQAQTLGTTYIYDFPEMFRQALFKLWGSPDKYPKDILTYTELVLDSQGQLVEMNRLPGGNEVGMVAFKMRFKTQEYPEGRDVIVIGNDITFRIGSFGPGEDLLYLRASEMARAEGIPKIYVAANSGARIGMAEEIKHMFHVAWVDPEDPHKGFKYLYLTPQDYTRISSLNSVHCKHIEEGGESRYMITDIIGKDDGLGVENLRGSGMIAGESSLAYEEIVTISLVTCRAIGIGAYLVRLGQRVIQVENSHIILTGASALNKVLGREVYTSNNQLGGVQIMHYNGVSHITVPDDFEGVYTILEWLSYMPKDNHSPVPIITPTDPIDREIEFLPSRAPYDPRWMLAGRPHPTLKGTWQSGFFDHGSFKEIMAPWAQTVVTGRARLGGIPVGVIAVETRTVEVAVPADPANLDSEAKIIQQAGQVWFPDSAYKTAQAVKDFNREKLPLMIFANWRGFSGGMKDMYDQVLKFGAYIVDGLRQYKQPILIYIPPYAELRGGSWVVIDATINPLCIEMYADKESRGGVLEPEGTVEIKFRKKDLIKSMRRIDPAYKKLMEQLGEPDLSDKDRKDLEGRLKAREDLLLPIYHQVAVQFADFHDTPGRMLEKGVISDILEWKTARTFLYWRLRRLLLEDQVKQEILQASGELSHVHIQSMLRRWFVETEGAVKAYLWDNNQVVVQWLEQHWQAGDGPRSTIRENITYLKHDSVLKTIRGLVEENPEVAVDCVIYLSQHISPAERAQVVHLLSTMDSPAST
row,Structure (SMILES),IC50 [nM]
1,"CCOc1ccc(N2CCC(c3ccc([C@H](C)NC(=O)CC#N)cc3)CC2)cc1 [Example 6.1, (S)-2-Cyano-N-(1-{4-[1-(4-ethoxy-phenyl)-piperidin-4-yl]-phenyl}-ethyl)-acetamide]",460
2,CCOc1ccc(N2CCC(c3ccc([C@H](C)NC(=O)c4ccco4)cc3)CC2)cc1 [Example 6.4],2100
3,CCOc1ccc(N2CCC(c3ccc([C@H](C)NC(=O)C4CCC4)cc3)CC2)cc1 [Example 6.7],770
4,CCOc1ccc(N2CCC(c3ccc([C@H](C)NC(=O)CC)cc3)CC2)cc1 [Example 6.8],190
5,CCOc1ccc(N2CCC(c3ccc([C@H](C)NC(=O)C4(C)CC4)cc3)CC2)cc1 [Example 6.9],150
6,CCOc1ccc(N2CCC(c3ccc([C@H](C)NC(=O)c4cn[nH]c4)cc3)CC2)cc1 [Example 6.10],250
7,CCOc1ccc(N2CCC(c3ccc([C@H](C)NC(=O)c4cncs4)cc3)CC2)cc1 [Example 6.11],340
8,CCOc1ccc(N2CCC(c3ccc([C@H](C)NC(=O)c4ccno4)cc3)CC2)cc1 [Example 6.12],1300
9,CCOc1ccc(N2CCC(c3ccc([C@H](C)NC(=O)CC4CC4)cc3)CC2)cc1 [Example 6.13],1100
10,CCOc1ccc(N2CCC(c3ccc([C@H](C)NC(=O)COC)cc3)CC2)cc1 [Example 6.15],1000
11,C=CCC(=O)N[C@@H](C)c1ccc(C2CCN(c3ccc(OCC)cc3)CC2)cc1 [Example 6.16],570
12,CCOCC(=O)N[C@@H](C)c1ccc(C2CCN(c3ccc(OCC)cc3)CC2)cc1 [Example 6.17],1900
13,CCOc1ccc(N2CCC(c3ccc([C@H](C)NC(=O)C4CC4C)cc3)CC2)cc1 (some centres unmarked) [Example 6.18],1100
14,CCOc1ccc(N2CCC(c3ccc([C@H](C)NC(=O)c4ccnnc4)cc3)CC2)cc1 [Example 6.19],1500
15,CCOc1ccc(N2CCC(c3ccc([C@H](C)NC(=O)C4(C#N)CC4)cc3)CC2)cc1 [Example 6.20],670
16,CCOc1ccc(N2CCC(c3ccc([C@H](C)NC(=O)Cc4ccccc4)cc3)CC2)cc1 [Example 6.21],1600
17,CCOc1ccc(N2CCC(c3ccc([C@H](C)NC(=O)c4ccc[nH]4)cc3)CC2)cc1 [Example 6.22],670
18,CCOc1ccc(N2CCC(c3ccc([C@H](C)NC(=O)C4CC4(F)F)cc3)CC2)cc1 (some centres unmarked) [Example 6.23],420
19,CCOc1ccc(N2CCC(c3ccc([C@H](C)NC(=O)c4cnc[nH]4)cc3)CC2)cc1 [Example 6.24],3900
20,CCOc1ccc(N2CCC(c3ccc([C@H](C)NC(=O)c4cnco4)cc3)CC2)cc1 [Example 6.25],340
21,CCOc1ccc(N2CCC(c3ccc([C@H](C)NC(=O)c4ccns4)cc3)CC2)cc1 [Example 6.26],280
22,CCOc1ccc(N2CCC(c3ccc([C@H](C)NC(=O)C4(C)COC4)cc3)CC2)cc1 [Example 6.27],4800
23,CCOc1ccc(N2CCC(c3ccc([C@H](C)NC(=O)Cn4ccnc4)cc3)CC2)cc1 [Example 6.28],1300
24,CCOc1ccc(N2CCC(c3ccc([C@H](C)NC(=O)c4cc[nH]n4)cc3)CC2)cc1 [Example 6.29],3600
25,CCOc1ccc(N2CCC(c3ccc([C@H](C)NC(=O)CCOC)cc3)CC2)cc1 [Example 6.30],1100

row,Structure (SMILES),IC50 [nM]
1,CCOc1ccc(N2CCC(c3ccc([C@H](C)NC(=O)c4cccnc4)cc3)CC2)cc1 [Example 6.31],2800
2,CCOc1ccc(N2CCC(c3ccc([C@H](C)NC(=O)Cc4cccnc4)cc3)CC2)cc1 [Example 6.32],860
3,CCOc1ccc(N2CCC(c3ccc([C@H](C)NC(=O)c4nccs4)cc3)CC2)cc1 [Example 6.33],3100
4,CCOc1ccc(N2CCC(c3ccc([C@H](C)NC(=O)C4(C(F)(F)F)CC4)cc3)CC2)cc1 [Example 6.34],250
5,CCOc1ccc(N2CCC(c3ccc([C@H](C)NC(=O)c4ncc[nH]4)cc3)CC2)cc1 [Example 6.35],7100
6,CCOc1ccc(N2CCC(c3ccc([C@H](C)NC(=O)c4cnon4)cc3)CC2)cc1 [Example 6.36],9100
7,CCOc1ccc(N2CCC(c3ccc([C@H](C)NC(=O)C4CC(OC)C4)cc3)CC2)cc1 (some centres unmarked) [Example 6.37],760
8,CCOc1ccc(N2CCC(c3ccc([C@H](C)NC(=O)C4CC(F)C4)cc3)CC2)cc1 (some centres unmarked) [Example 6.38],90
9,CCOc1ccc(N2CCC(c3ccc([C@H](C)NC(=O)CCC#N)cc3)CC2)cc1 [Example 6.39],1300
10,CCOc1ccc(N2CCC(c3ccc([C@H](C)NC(=O)c4ccncc4)cc3)CC2)cc1 [Example 6.40],1200
11,CCOc1ccc(N2CCC(c3ccc([C@H](C)NC(=O)c4ncn[nH]4)cc3)CC2)cc1 [Example 6.41],4100
12,CCOc1ccc(N2CCC(c3ccc([C@H](C)NC(=O)c4cncnc4)cc3)CC2)cc1 [Example 6.42],2800
13,CCOc1ccc(N2CCC(c3ccc([C@H](C)NC(=O)/C=N/OC)cc3)CC2)cc1 [Example 6.43],1100
14,CCOc1ccc(N2CCC(c3ccc([C@H](C)NC(=O)C(C)(C)OC)cc3)CC2)cc1 [Example 6.44],25000
15,CCOc1ccc(N2CCC(c3ccc([C@H](C)NC(=O)C4(C)CCC4)cc3)CC2)cc1 [Example 6.45],2600
16,CCOc1ccc(N2CCC(c3ccc([C@H](C)NC(=O)c4cscn4)cc3)CC2)cc1 [Example 6.46],10400
17,CCOc1ccc(N2CCC(c3ccc([C@H](C)NC(=O)c4cocn4)cc3)CC2)cc1 [Example 6.47],730
18,CCOc1ccc(N2CCC(c3ccc([C@H](C)NC(=O)CO)cc3)CC2)cc1 [Example 6.48],3700
19,CCOc1ccc(N2CCC(c3ccc([C@H](C)NC(=O)CNC(=O)OC(C)(C)C)cc3)CC2)cc1 [Example 6.49],8300
20,"CC(=O)N[C@@H](C)c1ccc(C2CCN(c3ccc(OC4CCOCC4)cc3)CC2)cc1 [Example 7.1, (S)—N-[1-(4-{1-[4-(Tetrahydro-2H-pyran-4-yloxy)-phenyl]-piperidin-4-yl}-phenyl)-ethyl]-acetamide]",580
21,CC(=O)N[C@@H](C)c1ccc(C2CCN(c3cccc(OC4CCOCC4)c3)CC2)cc1 [Example 7.2],190
22,CCOCCOc1ccc(N2CCC(c3ccc([C@H](C)NC(C)=O)cc3)CC2)cc1 [Example 8.1],440
23,CCOCCOc1cccc(N2CCC(c3ccc([C@H](C)NC(C)=O)cc3)CC2)c1 [Example 8.2],300
24,CC(=O)N[C@@H](C)c1ccc(C2CCN(c3cccc(OCC4CC4)c3)CC2)cc1 [Example 8.3],200
25,CC(=O)N[C@@H](C)c1ccc(C2CCN(c3cccc(OCC(C)C)c3)CC2)cc1 [Example 8.4],400

row,Structure (SMILES),IC50 [nM]
1,CC(=O)N[C@@H](C)c1ccc(C2CCN(c3cccc(OC4CCCC4)c3)CC2)cc1 [Example 8.5],220
2,CCCCOc1cccc(N2CCC(c3ccc([C@H](C)NC(C)=O)cc3)CC2)c1 [Example 8.6],330
3,CC(=O)N[C@@H](C)c1ccc(C2CCN(c3cccc(OC(C)C)c3)CC2)cc1 [Example 8.7],160
4,CCCOc1cnc(N2CCC(c3ccc([C@H](C)NC(C)=O)cc3)CC2)cn1 [Example 8.8],290
5,CC(=O)N[C@@H](C)c1ccc(C2CCN(c3ccc(OC4COC4)cc3)CC2)cc1 [Example 8.9],600
6,CCOC(=O)C1(Oc2ccc(N3CCC(c4ccc([C@H](C)NC(C)=O)cc4)CC3)cc2)CCC1 [Example 8.10],100
7,CC(=O)N[C@@H](C)c1ccc(C2CCN(c3ccc(OC4CCC4)c(C)c3)CC2)cc1 [Example 8.11],1800
8,CC(=O)N[C@@H](C)c1ccc(C2CCN(c3ccc(OC4CCC4)c(C#N)c3)CC2)cc1 [Example 8.12],2300
9,CC(=O)N[C@@H](C)c1ccc(C2CCN(c3ccc(OC4CCC4)c(F)c3)CC2)cc1 [Example 8.13],110
10,CC(=O)N[C@@H](C)c1ccc(C2CCN(c3ccc(OC4CCC4)c(Cl)c3)CC2)cc1 [Example 8.14],130
11,CCOc1ccc(N2CCC(c3ccc([C@H](C)NC(C)=O)cc3)CC2)cc1C [Example 8.15],830
12,CCOc1ccc(N2CCC(c3ccc([C@H](C)NC(C)=O)cc3)CC2)cc1C#N [Example 8.16],5600
13,CCOc1ccc(N2CCC(c3ccc([C@H](C)NC(C)=O)cc3)CC2)cc1F [Example 8.17],290
14,CCOc1ccc(N2CCC(c3ccc([C@H](C)NC(C)=O)cc3)CC2)cc1OC [Example 8.18],2700
15,COCCOc1ccc(N2CCC(c3ccc([C@H](C)NC(C)=O)cc3)CC2)cc1C [Example 8.19],6000
16,COCCOc1ccc(N2CCC(c3ccc([C@H](C)NC(C)=O)cc3)CC2)cc1C#N [Example 8.20],12000
17,COCCOc1ccc(N2CCC(c3ccc([C@H](C)NC(C)=O)cc3)CC2)cc1F [Example 8.21],1500
18,COCCOc1ccc(N2CCC(c3ccc([C@H](C)NC(C)=O)cc3)CC2)cc1OC [Example 8.22],14600
19,CC(=O)N[C@@H](C)c1ccc(C2CCN(c3ccc(OC(C)C)c(C)c3)CC2)cc1 [Example 8.23],570
20,CC(=O)N[C@@H](C)c1ccc(C2CCN(c3ccc(OC(C)C)c(C#N)c3)CC2)cc1 [Example 8.24],12400
21,CC(=O)N[C@@H](C)c1ccc(C2CCN(c3ccc(OC(C)C)c(Cl)c3)CC2)cc1 [Example 8.25],710
22,CC(=O)N[C@@H](C)c1ccc(C2CCN(c3ccc(OCC(C)C)c(C)c3)CC2)cc1 [Example 8.26],840
23,CC(=O)N[C@@H](C)c1ccc(C2CCN(c3ccc(OCC(C)C)c(C#N)c3)CC2)cc1 [Example 8.27],2600

# Same assay, conditions: IC50, ACC2 assay, hACC2 construct lacking 128 N-terminal amino acids, 25° C., 340 nm
row,Structure (SMILES),IC50 [nM]
1,CCOc1ccc(N2CCC(c3ccc([C@H](C)NC(=O)CF)cc3)CC2)cc1 [Example 6.14],190
